Results on 13 compounds are retold here after article PMC8619434 (Viruses, 2021).

The viability is a read-out of living cells in per cent, often relative to untreated cells. As usually defined, the IC50 is the concentration needed to halve the response being measured.

Converted amounts (≈) assume the structure as drawn. Where a name gives a salt, the structure may show the parent alone. Read-outs that look alike come from different tables or passages of the source.

Data set [1] concerns SARS-CoV-2 spike protein pseudovirus. The experiment in a line: microbe, parasite or virus in culture. The data set is classed as cell-based. Conditions: for activity at 10 µM: 293T/ACE2, 48 h, read-out: % Infectivity of SARS-2-Spike pv; for IC50: 293T/ACE2, read-out: IC50 of SARS-CoV-2-S pseudovirus infectivity.
For a further data set, the system named is VSV-G pseudovirus. Nature of the data set: microbe, parasite or virus in culture. The data set is classed as cell-based, vesicular stomatitis virus. Conditions: for activity at 10 µM: Pseudovirus, 293T/ACE2, read-out: % Infectivity of VSV-G pv.
A further data set deals with SARS-CoV-1-S pseudovirus. The data set is classed as cell-based.
The next data set concerns MERS-CoV-S pseudovirus. The data set is classed as cell-based.
The next data set is described as follows: in vitro. Conditions: human, % Viability of SARS-2-Spike pv.
For data set [2] the following is noted: predictions for the uncharged form; ref https://go.drugbank.com; cited from earlier work.
The conditions of data set [3]: values for the salts; ref chemical supplier datasheets; cited from earlier work.
In data set [4] the test system is SARS-CoV-2 spike protein pseudovirus. The data set is classed as cell-based.

On to `CCOC(=O)C1OC1C(=O)NC(CC(C)C)C(=O)NCCC(C)C` (centres unmarked) [E64d], for which the activity at 10 µM in data set [1] turned out to be 9%; in the data set on VSV-G pseudovirus, 105%. Moreover, the “inhibition of SARS-CoV-1-S pseudovirus infection” value in the data set with SARS-CoV-1-S pseudovirus was “inhibited”. Also, in the data set with MERS-CoV-S pseudovirus, the “inhibition of MERS-CoV-S pseudovirus infection” value was “inhibited”. Further, the viability in the data set “in vitro” came to 95%.
`CN(C)CCC=C1c2ccccc2CCc2ccccc21` [amitriptyline HCl]: in data set [1], the activity at 10 µM is 9% and the 50% inhibitory concentration (IC50) came out at 4.98 µM. Also, the activity at 10 µM with VSV-G pseudovirus came to 80%. In addition, the water solubility a in [2] was 14 µM. Further, the water solubility b in [3] was 99000 µM. The viability in the data set “in vitro” is 112%.
As for `CCOC(=O)C1=C(COCCN)NC(C)=C(C(=O)OC)C1c1ccccc1Cl` (centres unmarked) [amlodipine besylate], in data set [1], the “% Infectivity of SARS-2-Spike pv” value is listed as 19%. For the same compound, the “% Infectivity of VSV-G pv” value in the data set with VSV-G pseudovirus was 100%. Besides, the “% Viability of SARS-2-Spike pv” value in the data set on 293T-ACE2 cells (human) amounted to 116%.
On to `CN1CC2c3ccccc3Oc3ccc(Cl)cc3C2C1` (centres unmarked) [asenapine], for which, in [1], the “combination effect with hydroxychloroquine on SARS-CoV-2 pseudovirus infectivity” value was “additive effects” and the activity at 10 µM came out at 4%. For the same compound, the activity at 10 µM in the data set on VSV-G pseudovirus worked out at 71%. In addition, the water solubility a in data set [2] was 78 µM (≈ 22.3 µg/mL). Further, the water solubility b in [3] is 9000 µM. For the same compound, the viability in the data set “in vitro” came out at 92%.
Consider `CC[C@H]1OC(=O)[C@H](C)[C@@H](O[C@H]2C[C@@](C)(OC)[C@@H](O)[C@H](C)O2)[C@H](C)[C@@H](O[C@@H]2O[C@H](C)C[C@H](N(C)C)[C@H]2O)[C@](C)(O)C[C@@H](C)CN(C)[C@H](C)[C@@H](O)[C@]1(C)O` [azithromycin], for which, in data set [1], the “% Infectivity of SARS-2-Spike pv” value was 3% and the IC50 was 0.78 µM. For the same compound, in the data set with VSV-G pseudovirus, the “% Infectivity of VSV-G pv” value is given as 93%. Moreover, the “% Viability of SARS-2-Spike pv” value in the data set on 293T-ACE2 cells (human) stood at 100%.
For `Cc1c(-c2ccc(O)cc2)n(Cc2ccc(OCCN3CCCCCC3)cc2)c2ccc(O)cc12.Cl` [bazedoxifene Hcl], the “% Infectivity of SARS-2-Spike pv” value in [1] is 3%. Moreover, the “% Infectivity of VSV-G pv” value in the data set with VSV-G pseudovirus came out at 13%. In the data set with 293T-ACE2 cells, the “% Viability of SARS-2-Spike pv” value is 88%.
Take `Cc1ccc(NC(=O)c2ccc(CN3CCN(C)CC3)cc2)cc1Nc1nccc(-c2cccnc2)n1` [imatinib]: the “% Infectivity of SARS-2-Spike pv” value in data set [1] is recorded as 81%. Besides, in the data set with 293T-ACE2 cells (human), the “% Viability of SARS-2-Spike pv” value is recorded as 103%.
`CNCCCC12CCC(c3ccccc31)c1ccccc12` [maprotiline HCl]: the values for the activity at 10 µM (in data set [1]; in the data set with VSV-G pseudovirus) were 9% and 89%, respectively. Besides, the water solubility a in [2] is 150 µM. Further, the water solubility b in data set [3] was 159000 µM. For the same compound, the viability in “in vitro” is 99%.
Take `CN1CCC(=C2c3ccccc3CCc3sccc32)CC1` [pizotifen malate]: in data set [1], the activity at 10 µM was determined as 7% and the IC50 was 3.46 µM. In the data set with VSV-G pseudovirus, the activity at 10 µM was found to be 77%. In addition, the “% infectivity of SARS-CoV-2 pseudovirus in Calu3 cells” value in data set [4] is given as 13%. Moreover, in data set [2], the water solubility a is 16 µM. The viability in the data set “in vitro” worked out at 106%.
Regarding `OCCOCCN1CCN(C2=Nc3ccccc3Sc3ccccc32)CC1` [quetiapine], the activity in data set [1] (read-out: % infectivity (Table S3, kite-shaped molecules in order of inhibition), 10 µM) was determined as 113%. For the same compound, in the data set on 293T-ACE2 cells (human, 10 µM), the “% viability (Table S3)” value is listed as 101%.
In the case of `CN1CCN(c2nc(C3=C(c4c[nH]c5ccccc45)C(=O)NC3=O)c3ccccc3n2)CC1` [sotrastaurin], in data set [1], the activity at 10 µM came out at 8% and the IC50 was 6.89 µM. In the data set on VSV-G pseudovirus, the activity at 10 µM came out at 76%. Also, the “inhibition of SARS-CoV-1-S pseudovirus infection” value in the data set on SARS-CoV-1-S pseudovirus was “significant inhibition”. The “inhibition of MERS-CoV-S pseudovirus infection” value with MERS-CoV-S pseudovirus is on record as “non-significant inhibition”. Moreover, the viability in “in vitro” was determined as 89%.
In the case of `CN1CCN(CCCN2c3ccccc3Sc3ccc(C(F)(F)F)cc32)CC1` [trifluoperazine 2HCl], the activity at 10 µM in data set [1] turned out to be 5%; with VSV-G pseudovirus, 80%. In [1], the half-inhibitory concentration (IC50) turned out to be 3.3 µM. Further, in the data set on SARS-CoV-1-S pseudovirus, the “inhibition of SARS-CoV-1-S pseudovirus infection” value is “significant inhibition”. The “inhibition of MERS-CoV-S pseudovirus infection” value in the data set on MERS-CoV-S pseudovirus is “non-significant inhibition”. Further, in the data set “in vitro”, the viability was determined as 83%.
As for heparin sodium, the “% Infectivity of SARS-2-Spike pv” value in data set [1] worked out at 88%. Moreover, in the data set with 293T-ACE2 cells, the “% Viability of SARS-2-Spike pv” value is on record as 98%.
